For one data set, the system named is Murine EAC. The experiment in a line: MTT-test. Format: cell-based, mice. As to conditions: Murine EAC tumor cells, 24 h. As to the method:
(§1) Before the cells extraction, mice were sacrificed by cervical dislocation in accordance with the supplement to the Directive 86/609/EEC and its update Directive 2010/63/EU addressing the recommendations for euthanasia of experimental animals (Close et al., [1996]). To obtain peritoneal macrophages, healthy mice were used. The abdominal cavity of each animal was washed with 3 ml of sterile PBS using a Pasteur pipette. The culture of EAC cells was kindly provided by Dr. E.P. Kiseleva (Immunology Department of the Institute of Experimental Medicine, Saint Petersburg, Russia). On the tenth day after the intraperitoneal tumor inoculation, 0.5–1.5 ml of ascitic fluid containing EAC cells was obtained from the abdominal cavity of the animals. Murine cells (normal or tumor) were washed twice with 10 ml of sterile PBS and resuspended in RPMI-1640 medium as described above for human neutrophils and PBMC.
(§2) We calculated Fractional Effective Concentration Index (FECI), which could be seen as a particular case of the interaction index (I) proposed by Berenbaum ([1977]) or of the similar combination index (CI) proposed by Chou and Talalay ([1983]), according to the equation below: […]
(§3) Here, [MEC A] and [MEC B] are the minimum effective concentrations (MEC) of substances A and B, when they are used alone. […] [A] and [B] are respective concentrations of substances A and B in their combination, where the same statistically significant difference is detected. A non-parametric Mann-Whitney U-test (p < 0.05 or p < 0.01) was used for the mentioned statistical comparison.
(§4) We have chosen the same intervals as that of FICI to determine synergy, additivity, independent action, and antagonism based on the minimal FECI values. However, in case of cytotoxic or hemolytic effect we were interested mainly in testing the possibility of additive or synergistic interaction itself, and not in assessing the exact magnitude of such interaction. Thus, in contrast to the “checkerboard titration” method used for combined antimicrobial activity investigation, studying the combined cytotoxic effect, we considered only two combinations of concentrations for the substances A and B in the mixture: • (½ MEC A + ½ MEC B), which, if found effective, provides the FECI value of 1 (the threshold value for additivity); • (¼ MEC A + ¼ MEC B), which, if found effective, provides the FECI value of 0.5 (the threshold value for synergetic interaction).
(§5) When action on tumor cells was tested in combination with antitumor antibiotic the lower concentrations up to ( 1/16 MEC A + 1/16 MEC B) as in checkerboard titration were additionally examined to assess the magnitude of synergistic effect more precisely. The final conclusion was made based on the three independent experiments.
(§6) Standard MTT-test (Mosmann, [1983]) was used for the examination of the cytotoxic activity of antimicrobial compounds and their combinations toward varied eukaryotic cells. Briefly, cell suspensions in RPMI-1640 prepared as described in Eukaryotic Cells were dispensed into the 96-well microplates (2 × 10^5 cells/well). Then, serial dilutions of AMPs, or other antibiotic compounds, or their mixtures in RPMI-1640 were added. In positive controls (100% cell survival) the according volume of RPMI-1640 without test substances was added instead. The final volume in each well was 100 μl. Negative controls (0% cell survival) were made with 100 μl of the sterile RPMI-1640. The plates were incubated at 37°C under 5% CO2 for 24 h. Four hours before the end of incubation, 10 μl of metabolic marker MTT−3-(4,5-dimethylthiazol-2-yl)-2,5-diphenyltetrazolium bromide (5 mg/ml, diluted in PBS) was added to each well. Incubation was stopped by adding 90 μl of isopropanol containing 0.04 M HCl. Content of the wells was thoroughly mixed, so that the formazan crystals, formed in case of the reduction of MTT in presence of actively metabolizing cells, were fully dissolved.
(In general: Tetrazolium assays rely on reduction of a dye to a coloured formazan, in cell work by metabolically active cells.)

In another data set the test system is MRSA ATCC 33591. The data set is described as follows: microbe, parasite or virus in culture. Format: cell-based, Staphylococcus aureus. As to conditions: median of 3–6 experiments, square brackets = twice the maximal tested concentration.
The test system of data set [1] is A. baumannii (clin. isol.). The data set is described as follows: microbe, parasite or virus in culture. Format: cell-based, Acinetobacter baumannii.
Protocol: (§7) Prior to the “checkerboard” synergy test the minimal inhibitory concentrations (MIC) of individual substances were determined using broth microdilution assay. Testing was performed in 60-well polystyrene Terasaki microplates with V-shaped bottom generally according to the guidelines of the European Committee for Antimicrobial Susceptibility Testing with subtle modifications designed for AMP testing (Tossi et al., [1997]; Wiegand et al., [2008]). Cultivation of bacteria was carried out in 2.1% Müller-Hinton broth at 37°C with shaking. Two-fold serial dilutions of peptides, antibiotics and other antimicrobials were made with 10 mM sodium phosphate buffer, pH 7.4, containing 0.1% of BSA. The plates were preliminary incubated with 0.1% BSA for 1 h at 37°C to reduce a non-specific binding of peptides to the plates. After that BSA was removed, and serial dilutions were added into the plate wells in triplicates followed by the same volume of the suspension of bacterial cells in logarithmic phase of growth in concentration of 1 × 10^6 CFU/ml. After the 18 h overnight incubation at 37°C, the MIC value for each compound was determined as its lowest concentration completely inhibiting the visible growth of bacteria. The final results were calculated as median values based on 3–6 independent experiments.
The test system of data set [2] is Murine peritoneal macrophages. The data set is described as follows: MTT-test. As for the experimental part:
as §1, §2, §3, §4, §5, §6

The test system of the next data set is K562. As to conditions: K562 tumor cells (doxorubicin-sensitive); MTT, 24 h. As for the experimental part: The human erythromyeloid leukemia cell line K562 was obtained from the collection of the Institute of Cytology RAS (Saint Petersburg, Russia) and cultured in RPMI-1640 medium containing gentamicin (100 μg/ml) and 10% of fetal bovine serum at 37°C, 5% CO2. […] Drug resistance was maintained by monthly selection with the antibiotic (2 μg/ml in the culturing medium). Doxorubicin was removed from the medium 3 days prior to beginning any experiments. Before the testing K562 cells were washed twice with PBS and resuspended in RPMI-1640 in the same way as the other cell types.
as §2, §3, §4, §5, §6

A further data set relates to M. luteus CIP A270. The experiment in a line: microbe, parasite or virus in culture. Format: cell-based, Micrococcus luteus.
For the next data set, the system named is E. coli ML-35p. The data set is described as follows: microbe, parasite or virus in culture. As to conditions: median of 3–6 experiments, value in square brackets = twice the maximal tested concentration, read-out: MIC. Format: cell-based, Escherichia coli.
Where [3] appears, read: Staphylococcus aureus, read-out: MIC.
[4] abbreviates: Acinetobacter baumannii, A. baumannii (clin. isol.), susceptible, median of 3–6 experiments, read-out: MIC.
Setting [5] is: Micrococcus luteus, CIPA270, median of 3–6 experiments.
The mark [6] stands for this setting: Murine peritoneal macrophages, normal cells, MTT, 24 h.
Setting [7] is: A. baumannii (clin. isol.), susceptible, median of 3–6 experiments, read-out: MIC.

We go through eight compounds from paper PMC6503114, “Application of Antimicrobial Peptides of the Innate Immune System in Combination With Conventional Antibiotics—A Novel Way to Combat Antibiotic Resistance?” (Frontiers in Cellular and Infection Microbiology, 2019).

≈ marks a conversion by molar mass, not a printed value. Like-named read-outs stand apart in the source and are kept apart here. Where no end group is shown, it is not given here. Where only a bound is given, the exact number is not on record here.

Protocol for E. coli ML-35p: as §7
Protocol for M. luteus CIP A270: as §7
Protocol for MRSA ATCC 33591: as §7

As to `CNC(C)C1CCC(N)C(OC2C(N)CC(N)C(OC3OCC(C)(O)C(NC)C3O)C2O)O1` (centres unmarked) [Gentamicin], the “MEC of cytotoxic action” value in the data set with Murine EAC was >50 [100] μM; in data set [2] (mouse, 24 h), >50 [100] μM; in the data set with K562, 50 µM. Moreover, the MIC was determined as 0.16 µM (≈ 0.0764 µg/mL) in the data set with MRSA ATCC 33591 (setting [3]); 0.06 µM (≈ 0.0287 µg/mL) in data set [1] (setting [4]); 0.16 µM (≈ 0.0764 µg/mL) in the data set with M. luteus CIP A270 (setting [5]); 0.625 µM (≈ 0.299 µg/mL) in the data set on E. coli ML-35p (Escherichia coli, ML35P).
Consider `CC[C@H](C)[C@H](NC(=O)[C@H](CCCCN)NC(=O)[C@H](CCC(=O)O)NC(=O)[C@H](CCCCN)NC(=O)[C@H](CO)NC(=O)[C@H](CCCCN)NC(=O)[C@H](CCCNC(=N)N)NC(=O)[C@H](Cc1ccccc1)NC(=O)[C@H](Cc1ccccc1)NC(=O)[C@H](CC(=O)O)NC(=O)CNC(=O)[C@H](CC(C)C)NC(=O)[C@@H](N)CC(C)C)C(=O)NCC(=O)N[C@@H](CCCCN)C(=O)N[C@@H](CCC(=O)O)C(=O)N[C@@H](Cc1ccccc1)C(=O)N[C@@H](CCCCN)C(=O)N[C@@H](CCCNC(=N)N)C(=O)N[C@H](C(=O)N[C@H](C(=O)N[C@@H](CCC(N)=O)C(=O)N[C@@H](CCCNC(=N)N)C(=O)N[C@H](C(=O)N[C@@H](CCCCN)C(=O)N[C@@H](CC(=O)O)C(=O)N[C@@H](Cc1ccccc1)C(=O)N[C@@H](CC(C)C)C(=O)N[C@@H](CCCNC(=N)N)C(=O)N[C@@H](CC(N)=O)C(=O)N[C@@H](CC(C)C)C(=O)N[C@H](C(=O)N1CCC[C@H]1C(=O)N[C@@H](CCCNC(=N)N)C(=O)N[C@H](C(=O)N[C@@H](CCC(=O)O)C(=O)N[C@@H](CO)C(=O)O)[C@@H](C)O)C(C)C)[C@@H](C)CC)C(C)C)[C@@H](C)CC` [LL-37], for which the “MEC of cytotoxic action” value is 10 µM in the data set with Murine EAC, >20 [40] μM in data set [2] (setting [6]) and 5.0 µM in the data set on K562.
On to `CC1COc2c(N3CCN(C)CC3)c(F)cc3c(=O)c(C(=O)O)cn1c23` (centres unmarked) [Ofloxacin], for which the “MEC of cytotoxic action” value with Murine EAC is >50 [100] μM; in data set [2] (mouse, 24 h), >50 [100] μM; in the data set on K562 it was >50 [100] μM. The MIC came out at 0.625 µM (≈ 0.226 µg/mL) in the data set with MRSA ATCC 33591 (setting [3]); 0.3 µM (≈ 0.108 µg/mL) in data set [1] (setting [4]); 5 µM (≈ 1.81 µg/mL) in the data set on M. luteus CIP A270 (setting [5]); 0.125 µM (≈ 0.0452 µg/mL) with E. coli ML-35p (Escherichia coli, ML35P).
In the case of `Cc1onc(-c2ccccc2)c1C(=O)N[C@@H]1C(=O)N2[C@@H]1SC(C)(C)[C@@H]2C(=O)O` [Oxacillin], the “MEC of cytotoxic action” value with Murine EAC is >50 [100] μM; in data set [2] (mouse, 24 h) it was >50 [100] μM; in the data set with K562, >50 [100] μM. Moreover, the MIC is 7.5 µM (≈ 3.01 µg/mL) with MRSA ATCC 33591 (setting [3]); 25 µM (≈ 10 µg/mL) in data set [1] (setting [4]); 3.1 µM (≈ 1.24 µg/mL) against M. luteus CIP A270 (setting [5]); greater than 250 µM in the data set on E. coli ML-35p (Escherichia coli, ML35P).
Regarding `CO[C@H]1/C=C/O[C@@]2(C)Oc3c(C)c(O)c4c(O)c(c(/C=N/N5CCN(C)CC5)c(O)c4c3C2=O)NC(=O)/C(C)=C\C=C\[C@H](C)[C@H](O)[C@@H](C)[C@@H](O)[C@@H](C)[C@H](OC(C)=O)[C@@H]1C` [Rifampicin], the “MEC of cytotoxic action” value with Murine EAC is >20 [40] μM; in data set [2] (mouse, 24 h), >20 [40] μM; with K562, >20 [40] μM. The MIC is 0.003 µM (≈ 0.00247 µg/mL) with MRSA ATCC 33591 (setting [3]); 0.125 µM (≈ 0.103 µg/mL) in data set [1] (Acinetobacter baumannii); 0.003 µM (≈ 0.00247 µg/mL) against M. luteus CIP A270 (setting [5]); 10 µM (≈ 8.23 µg/mL) in the data set with E. coli ML-35p (Escherichia coli, ML35P).
For the compound “Lysozyme: egg white lysozyme, antimicrobial protein, from BioChemica”, the “MEC of cytotoxic action” value was 50 µM with Murine EAC, >50 [100] μM in data set [2] and >50 [100] μM in the data set on K562. Besides, the MIC against MRSA ATCC 33591 was >250 [500] μM; in data set [1] (setting [7]), 1.2 µM; against M. luteus CIP A270 (median of 3–6 experiments), 0.08 µM.
In the case of Polymyxin B, the results for the “MEC of cytotoxic action” value (in the data set on Murine EAC; in data set [2] (setting [6]); with K562) were 50 µM, 50 µM and 25 µM, respectively. Also, the MIC in the data set on MRSA ATCC 33591 (read-out: MIC) turned out to be 12.5 µM; in data set [1] (setting [7]), 1.25 µM; in the data set on M. luteus CIP A270 (median of 3–6 experiments), 0.6 µM; with E. coli ML-35p it was 0.4 µM.
Regarding “RFRLPFRRPPIRIHPPPFYPPFRRFL-NH2 (C-terminus assumed) [ChBac3.4]”, the “MEC of cytotoxic action” value was 5.0 µM in the data set with Murine EAC, >20 [40] μM in data set [2] and 20 µM in the data set with K562.
